# How the values were obtained:
# Test in all cases: relative viability (nuclei count vs DMSO), 5 days (fraction); higher = more cells survive
# 201T = tested on: 201T
# Outline: (§1)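 Cells from lung cancer lines were seeded into 1536-well plates and, one day later, dosed by pin tool. Treatments were either a single drug or a fixed dose of an anchor drug with five library-drug doses (not always all listed) in √10 steps. After 5 days, nuclei were stained in a one-step fixation (final 0.05% Triton X-100, 1% formaldehyde, 1 ug/ml Hoechst) and counted on 4× images, and relative viability is the treated-to-vehicle nuclei ratio, as the median of duplicate plates.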
# COR-L23 = tested on: COR-L23
# Outline: as §1
# EPLC-272H = tested on: EPLC-272H
# Outline: as §1
# H3255 = tested on: H3255
# Outline: as §1
# LOU-NH91 = tested on: LOU-NH91
# Outline: as §1
# NCI-H1563 = tested on: NCI-H1563
# Outline: as §1
# NCI-H1650 = tested on: NCI-H1650
# Outline: as §1
# NCI-H1734 = tested on: NCI-H1734
# Outline: as §1
# NCI-H1793 = tested on: NCI-H1793
# Outline: as §1
# NCI-H1993 = tested on: NCI-H1993
# Outline: as §1
# NCI-H2023 = tested on: NCI-H2023
# Outline: as §1
# NCI-H2085 = tested on: NCI-H2085
# Outline: as §1
# NCI-H2170 = tested on: NCI-H2170
# Outline: as §1
# NCI-H2347 = tested on: NCI-H2347
# Outline: as §1
# NCI-H2405 = tested on: NCI-H2405
# Outline: as §1
# NCI-H3122 = tested on: NCI-H3122
# Outline: as §1
# NCI-H441 = tested on: NCI-H441
# Outline: as §1
# NCI-H520 = tested on: NCI-H520
# Outline: as §1
# NCI-H647 = tested on: NCI-H647
# Outline: as §1
# PC-14 = tested on: PC-14
# Outline: as §1
# RERF-LC-KJ = tested on: RERF-LC-KJ
# Outline: as §1
# SW 900 = tested on: SW 900
# Outline: as §1
smiles,measurement,setting,value
CC1(C)CCC(c2ccc(Cl)cc2)=C(CN2CCN(c3ccc(C(=O)NS(=O)(=O)c4ccc(N[C@H](CCN5CCOCC5)CSc5ccccc5)c(S(=O)(=O)C(F)(F)F)c4)cc3)CC2)C1 [Navitoclax] + COc1cc2c(Oc3ccc(NC(=O)C4(C(=O)Nc5ccc(F)cc5)CC4)cc3F)ccnc2cc1OCCCN1CCOCC1 [Foretinib] (partner 0.25 µM),relative viability,201T; first compound 0.005 µM,1.2
same,relative viability,201T; first compound 0.01581 µM,1.43
same,relative viability,201T; first compound 0.05 µM,1.06
same,relative viability,201T; first compound 0.1581 µM,1.12
same,relative viability,201T; first compound 0.5 µM,1.03
same,relative viability,COR-L23; first compound 0.005 µM,0.957
same,relative viability,COR-L23; first compound 0.01581 µM,1.13
same,relative viability,COR-L23; first compound 0.05 µM,1.02
same,relative viability,COR-L23; first compound 0.1581 µM,0.938
same,relative viability,COR-L23; first compound 0.5 µM,0.947
same,relative viability,EPLC-272H; first compound 0.005 µM,0.707
same,relative viability,EPLC-272H; first compound 0.05 µM,0.766
same,relative viability,EPLC-272H; first compound 0.1581 µM,0.712
same,relative viability,EPLC-272H; first compound 0.5 µM,0.764
same,relative viability,H3255; first compound 0.005 µM,0.884
same,relative viability,H3255; first compound 0.01581 µM,0.973
same,relative viability,H3255; first compound 0.05 µM,0.764
same,relative viability,H3255; first compound 0.1581 µM,0.861
same,relative viability,H3255; first compound 0.5 µM,0.787
same,relative viability,LOU-NH91; first compound 0.005 µM,0.955
same,relative viability,LOU-NH91; first compound 0.01581 µM,0.932
same,relative viability,LOU-NH91; first compound 0.05 µM,0.941
same,relative viability,LOU-NH91; first compound 0.1581 µM,0.911
same,relative viability,LOU-NH91; first compound 0.5 µM,0.824
same,relative viability,NCI-H1563; first compound 0.005 µM,0.948
same,relative viability,NCI-H1563; first compound 0.01581 µM,0.967
same,relative viability,NCI-H1563; first compound 0.05 µM,0.856
same,relative viability,NCI-H1563; first compound 0.1581 µM,0.987
same,relative viability,NCI-H1563; first compound 0.5 µM,1.03
same,relative viability,NCI-H1650; first compound 0.005 µM,1.08
same,relative viability,NCI-H1650; first compound 0.01581 µM,1.48
same,relative viability,NCI-H1650; first compound 0.05 µM,1.12
same,relative viability,NCI-H1650; first compound 0.1581 µM,1.28
same,relative viability,NCI-H1650; first compound 0.5 µM,0.953
same,relative viability,NCI-H1734; first compound 0.005 µM,0.887
same,relative viability,NCI-H1734; first compound 0.01581 µM,0.941
same,relative viability,NCI-H1734; first compound 0.1581 µM,0.831
same,relative viability,NCI-H1734; first compound 0.5 µM,0.906
same,relative viability,NCI-H1793; first compound 0.005 µM,0.616
same,relative viability,NCI-H1793; first compound 0.01581 µM,0.711
same,relative viability,NCI-H1793; first compound 0.1581 µM,0.608
same,relative viability,NCI-H1793; first compound 0.5 µM,0.622
same,relative viability,NCI-H1993; first compound 0.005 µM,0.854
same,relative viability,NCI-H1993; first compound 0.01581 µM,0.938
same,relative viability,NCI-H1993; first compound 0.05 µM,0.687
same,relative viability,NCI-H1993; first compound 0.1581 µM,0.839
same,relative viability,NCI-H1993; first compound 0.5 µM,0.862
same,relative viability,NCI-H2023; first compound 0.005 µM,0.912
same,relative viability,NCI-H2023; first compound 0.01581 µM,1.12
same,relative viability,NCI-H2023; first compound 0.05 µM,0.819
same,relative viability,NCI-H2023; first compound 0.1581 µM,0.848
same,relative viability,NCI-H2023; first compound 0.5 µM,0.995
same,relative viability,NCI-H2085; first compound 0.005 µM,0.92
same,relative viability,NCI-H2085; first compound 0.01581 µM,0.98
same,relative viability,NCI-H2085; first compound 0.05 µM,0.989
same,relative viability,NCI-H2085; first compound 0.1581 µM,0.863
same,relative viability,NCI-H2085; first compound 0.5 µM,0.836
same,relative viability,NCI-H2170; first compound 0.005 µM,0.969
same,relative viability,NCI-H2170; first compound 0.01581 µM,1.02
same,relative viability,NCI-H2170; first compound 0.05 µM,1.08
same,relative viability,NCI-H2170; first compound 0.1581 µM,1.07
same,relative viability,NCI-H2170; first compound 0.5 µM,0.955
same,relative viability,NCI-H2347; first compound 0.005 µM,1.42
same,relative viability,NCI-H2347; first compound 0.05 µM,0.652
same,relative viability,NCI-H2347; first compound 0.1581 µM,0.665
same,relative viability,NCI-H2347; first compound 0.5 µM,0.913
same,relative viability,NCI-H2405; first compound 0.005 µM,1.04
same,relative viability,NCI-H2405; first compound 0.01581 µM,1.09
same,relative viability,NCI-H2405; first compound 0.05 µM,0.998
same,relative viability,NCI-H2405; first compound 0.1581 µM,1.04
same,relative viability,NCI-H2405; first compound 0.5 µM,1.05
same,relative viability,NCI-H3122; first compound 0.005 µM,0.936
same,relative viability,NCI-H3122; first compound 0.01581 µM,1.04
same,relative viability,NCI-H3122; first compound 0.05 µM,0.964
same,relative viability,NCI-H3122; first compound 0.1581 µM,0.934
same,relative viability,NCI-H3122; first compound 0.5 µM,0.966
same,relative viability,NCI-H441; first compound 0.005 µM,0.958
same,relative viability,NCI-H441; first compound 0.01581 µM,1.05
same,relative viability,NCI-H441; first compound 0.05 µM,1.05
same,relative viability,NCI-H441; first compound 0.1581 µM,0.945
same,relative viability,NCI-H441; first compound 0.5 µM,0.948
same,relative viability,NCI-H520; first compound 0.01581 µM,0.985
same,relative viability,NCI-H520; first compound 0.05 µM,0.892
same,relative viability,NCI-H520; first compound 0.1581 µM,0.738
same,relative viability,NCI-H520; first compound 0.5 µM,0.61
same,relative viability,NCI-H647; first compound 0.005 µM,1.22
same,relative viability,NCI-H647; first compound 0.01581 µM,1.38
same,relative viability,NCI-H647; first compound 0.05 µM,1.27
same,relative viability,NCI-H647; first compound 0.1581 µM,1.24
same,relative viability,NCI-H647; first compound 0.5 µM,1.27
same,relative viability,PC-14; first compound 0.005 µM,0.898
same,relative viability,PC-14; first compound 0.01581 µM,0.981
same,relative viability,PC-14; first compound 0.05 µM,1.27
same,relative viability,PC-14; first compound 0.1581 µM,0.941
same,relative viability,PC-14; first compound 0.5 µM,0.838
same,relative viability,RERF-LC-KJ; first compound 0.005 µM,0.841
same,relative viability,RERF-LC-KJ; first compound 0.01581 µM,0.896
same,relative viability,RERF-LC-KJ; first compound 0.05 µM,0.844
same,relative viability,RERF-LC-KJ; first compound 0.1581 µM,0.942
same,relative viability,RERF-LC-KJ; first compound 0.5 µM,0.849
same,relative viability,SW 900; first compound 0.005 µM,0.857
same,relative viability,SW 900; first compound 0.01581 µM,1.04
same,relative viability,SW 900; first compound 0.05 µM,0.819
same,relative viability,SW 900; first compound 0.1581 µM,0.643
same,relative viability,SW 900; first compound 0.5 µM,0.85
